# Assay results published in patent US8604218B2, “Cytoskeletal active rho kinase inhibitor compounds, composition and use” (Inspire Pharmaceuticals, Inc., priority 2006, dated 2013).
# Molecular target: ROCK2 (Homo sapiens (Human), UniProt O75116)
# Assay: Rho Kinase Inhibition Assay (IMAP fluorescence polarization)
# Assay type: biochemical
# Settings: isolated enzyme, 10 μM ATP, 60 minutes at room temperature
# Protocol: Following the preincubation, 10 μM ATP was added to initiate the reaction. After 60 minutes at room temperature, Molecular Devices IMAP™ binding solution was added to bind phosphorylated substrate. After 30 minutes of incubation in the presence of the IMAP™ beads the fluorescence polarization was read and the ratio was reported as mP. IC50 results were calculated using the Prism software from Graphpad.
# See Tian et al., Arch. Ophthalmol. […] Ophthalmol. Vis. […] Ophthalmol. […] Cytoskel. […] Ophthalmol. Vis. […] Ophthalmol. Vis.
# Sequence of ROCK2 (O75116 11-552): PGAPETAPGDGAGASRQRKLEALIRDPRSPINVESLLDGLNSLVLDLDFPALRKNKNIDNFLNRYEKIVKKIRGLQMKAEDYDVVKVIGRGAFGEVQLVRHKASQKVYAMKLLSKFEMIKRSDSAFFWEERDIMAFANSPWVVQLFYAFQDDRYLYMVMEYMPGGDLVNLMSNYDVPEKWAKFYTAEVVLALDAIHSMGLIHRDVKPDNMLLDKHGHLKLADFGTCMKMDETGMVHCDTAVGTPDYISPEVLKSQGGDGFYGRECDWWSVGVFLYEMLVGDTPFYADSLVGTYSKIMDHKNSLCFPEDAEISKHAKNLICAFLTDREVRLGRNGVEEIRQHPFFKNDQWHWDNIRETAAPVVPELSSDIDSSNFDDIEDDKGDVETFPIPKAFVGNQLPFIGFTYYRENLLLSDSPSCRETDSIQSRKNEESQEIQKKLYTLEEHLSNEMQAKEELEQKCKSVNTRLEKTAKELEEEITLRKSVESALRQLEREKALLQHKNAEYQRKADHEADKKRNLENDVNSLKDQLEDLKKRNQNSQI
row,SMILES,IC50
1,"NCc1cccc(CN2CCCC(Nc3ccc4[nH]ncc4c3)C2)c1 (stereo not shown) [Compound 1.061, N-(1-(3-(aminomethyl)benzyl)piperidin-3-yl)-1H-indazol-5-amine]",282 nM
2,"CCc1ccc(CN2CCCC(Nc3ccc4[nH]ncc4c3)C2)cc1 (stereo not shown) [Compound 1.033, N-(1-(4-ethylbenzyl)piperidin-3-yl)-1H-indazol-5-amine]",86.9 nM
3,"CS(=O)(=O)Nc1cccc(CN2CCCC(Nc3ccc4[nH]ncc4c3)C2)c1 (stereo not shown) [Compound 1.051, N-(3-((3-(1H-indazol-5-ylamino)piperidin-1-yl)methyl)phenyl)methanesulfonamide]",62.6 nM
4,"FC(F)(F)c1cccc(CN2CCCC(Nc3cccc4cnccc34)C2)c1 (stereo not shown) [Compound 2.015, N-(1-(3-(trifluoromethyl)benzyl)piperidin-3-yl)isoquinolin-5-amine]",4190 nM
5,"C#Cc1ccc(CN2CCCC(Nc3ccc4[nH]ncc4c3)C2)cc1O (stereo not shown) [Compound 1.083, 5-((3-(1H-indazol-5-ylamino)piperidin-1-yl)methyl)-2-ethynylphenol]",7310 nM
6,"c1cc(C2CC2)ccc1CN1CCCC(Nc2ccc3[nH]ncc3c2)C1 (stereo not shown) [Compound 1.020, N-(1-(4-cyclopropylbenzyl)piperidin-3-yl)-1H-indazol-5-amine]",251 nM
7,"Cc1ccc(CN2CC[C@@H](Nc3cccc4cnccc34)C2)cc1 [Compound 2.025, (R)-N-(1-(4-methylbenzyl)pyrrolidin-3-yl)isoquinolin-5-amine]",29.9 nM
8,"Cc1cccc(CN2CCCC(Nc3ccc4[nH]ncc4c3)C2)c1C (stereo not shown) [Compound 1.016, N-(1-(2,3-dimethylbenzyl)piperidin-3-yl)-1H-indazol-5-amine]",135 nM
9,"Brc1ccc(Br)c(CN2CCCC(Nc3ccc4[nH]ncc4c3)C2)c1 (stereo not shown) [Compound 1.071, N-(1-(2,5-dibromobenzyl)piperidin-3-yl)-1H-indazol-5-amine]",5590 nM
10,"c1cc2cc(CN3CCCC(Nc4ccc5[nH]ncc5c4)C3)ccc2[nH]1 (stereo not shown) [Compound 1.100, N-(1-((1H-indol-5-yl)methyl)piperidin-3-yl)-1H-indazol-5-amine]",42.9 nM
11,"CCCCc1ccc(CN2CCCC(Nc3ccc4[nH]ncc4c3)C2)cc1 (stereo not shown) [Compound 1.014, N-(1-(4-butylbenzyl)piperidin-3-yl)-1H-indazol-5-amine]",4690 nM
12,"CC(C)c1ccc(CN2CCCC(Nc3ccc4[nH]ncc4c3)C2)cc1 (stereo not shown) [Compound 1.023, N-(1-(4-isopropylbenzyl)piperidin-3-yl)-1H-indazol-5-amine]",334 nM
13,"Oc1cccc(CN2CCCC(Nc3ccc4[nH]ncc4c3)C2)c1 (stereo not shown) [Compound 1.046, 3-((3-(1H-indazol-5-ylamino)piperidin-1-yl)methyl)phenol]",156 nM
14,"NC(=O)Cn1ccc2ccc(CN3CCCC(Nc4ccc5[nH]ncc5c4)C3)cc21 (stereo not shown) [Compound 1.099, 2-(6-((3-(1H-indazol-5-ylamino)piperidin-1-yl)methyl)-1H-indol-1-yl)acetamide]",25.8 nM
15,"OCCOc1cccc(CN2CCC(Nc3ccc4[nH]ncc4c3)CC2)c1 [Compound 1.130, 2-(3-((4-(1H-indazol-5-ylamino)piperidin-1-yl)methyl)phenoxy)ethanol]",2710 nM
16,"Brc1cccc(CN2CCCC(Nc3ccc4[nH]ncc4c3)C2)c1 (stereo not shown) [Compound 1.045, N-(1-(3-bromobenzyl)piperidin-3-yl)-1H-indazol-5-amine]",586 nM
17,"C#Cc1ccc(CN2CCC[C@H](Nc3ccc4[nH]ncc4c3)C2)cc1 [Compound 1.077, (S)-N-(1-(4-ethynylbenzyl)piperidin-3-yl)-1H-indazol-5-amine]",53.1 nM
18,"c1cc(N2CCOCC2)ccc1CN1CCCC(Nc2ccc3[nH]ncc3c2)C1 (stereo not shown) [Compound 1.012, N-(1-(4-morpholinobenzyl)piperidin-3-yl)-1H-indazol-5-amine]",12200 nM
19,"FC(F)(F)c1cccc(CN2CCCC(Nc3ccc4[nH]ncc4c3)C2)c1 (stereo not shown) [Compound 1.063, N-(1-(3-(trifluoromethyl)benzyl)piperidin-3-yl)-1H-indazol-5-amine]",223 nM
